In series [1] the test system is IL-1β, human peripheral blood mononuclear cells (PBMC). Description: PBMC cell assay: IL-1β assay with human PBMC or enriched adherent mononuclear cells, LPS-stimulated. The series is classed as cell-based. In short, it runs like this: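 Mature IL-1β is measured by ELISA in supernatants after 16–18 hr at 37 °C, 5% CO2, with LPS (5 ng/ml final) and test compound (0.1% DMSO final). Cells are human PBMC (6×10^6 cells/ml) or plate-adherent mononuclear cells (2.5−3.0×10^5 per well), and the 5–6 compound concentrations span the ICE Ki.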

A short description of series [2]: In vivo rat clearance assay. The conditions noted are these: for clearance: plasma, iv. The method, then:
In Vivo Rat Clearance Assay
Cannulations of the jugular and carotid vessels of rats under anesthesia were performed one day prior to the pharmacokinetic study. M. J. Free, R. A. Jaffee; ‘Cannulation techniques for the collection blood and other bodily fluids’; in: Animal Models; p. 480-495; N. J. Alexander, Ed.; Academic Press; (1978). Drug (10 mg/mL) was administered via the jugular vein in a vehicle usually consisting of: propylene glycol/saline, containing 100 mM sodium bicarbonate in a 1:1 ratio. Animals were dosed with 10-20 mg drug/kg and blood samples were drawn at 0, 2, 5, 7, 10, 15, 20, 30, 60, and 90 minutes from an indwelling carotid catheter. The blood was centrifuged to plasma and stored at −20° C. until analysis. Pharmacokinetic analysis of data was performed by non-linear regression using standard software such as RStrip (MicroMath Software, UT) and/or Pcnonlin (SCI Software, NC) to obtain clearance values.
Rat plasma was extracted with an equal volume of acetonitrile (containing 0.1% TFA). Samples were then centrifuged at approximately 1,000×g and the supernatant analyzed by gradient HPLC. A typical assay procedure is described below.
A standard curve was run at 20, 10, 5, 2 and 1 μg/mL concentrations.

The next series deals with T1, ICE (Homo sapiens, UniProt P29466).
T1 sequence (P29466 120-297 limits assumed): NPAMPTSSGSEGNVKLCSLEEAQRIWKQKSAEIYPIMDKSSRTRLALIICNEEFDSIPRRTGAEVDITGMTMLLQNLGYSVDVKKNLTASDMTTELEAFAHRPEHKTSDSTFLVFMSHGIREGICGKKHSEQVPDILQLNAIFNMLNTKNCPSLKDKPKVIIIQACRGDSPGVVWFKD
T1 sequence (P29466 317-404 limits assumed): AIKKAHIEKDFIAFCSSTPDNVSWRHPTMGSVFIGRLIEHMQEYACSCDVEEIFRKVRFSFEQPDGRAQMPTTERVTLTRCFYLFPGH
In words: Enzyme assay with UV-visible substrate (visible ICE assay, Succinyl-Tyr-Val-Ala-Asp-pNitroanilide). It counts as biochemical. In short, it runs like this:
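Colorimetric caspase-1 activity: 15 min enzyme-inhibitor preincubation (RT), then Suc-Tyr-Val-Ala-Asp-pNA; 405-603 nm kinetics, 20 min, 37° C. Ki from rate fitting.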

Series [3] has as its system IL-1β production, LPS-challenged mice. Description: In vivo acute assay for efficacy as anti-inflammatory agent: LPS-induced IL-1β production in mice. Conditions: for inhibition at 50 mg/kg: Mus musculus, po, read-out: percent inhibition of IL-1β production; for inhibition at 50 mg/kg / percent inhibition of IL-1β production: LPS challenged mice, compound PO, 50 mg/kg. On the set-up: species or system mouse. The protocol: In Vivo Acute Assay for Efficacy as Anti-Inflammatory Agent
LPS-Induced IL-1β Production.
Efficacy of 214e and 217e was evaluated in CD1 mice (n=6 per condition) challenged with LPS (20 mg/kg IP). […] Blood was collected seven hours after LPS challenge. Serum IL-1β levels were measure by ELISA. […] Similar results were obtained in a second experiment. […] However, a clear dose response was not apparent.
Compounds 214e and 217e (50 mg/kg) were also administered by oral gavage to assess absorption.
The efficacy of analogs of 214e were also evaluated in LPS challenged mice after IP administration (FIG. 9) and PO administration (FIG. 10).
[…] The protocol is described in Example 7.

In the next series the test system is IL-1β, human whole blood. Description: Whole blood assay for IL-1β production. The conditions noted are these: Table 17, read-out: Whole human blood IC50. The series is classed as cell-based. In short, it runs like this: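 IL-1β was quantified by ELISA in plasma diluted 1:200. The plasma came from EDTA-anticoagulated human whole blood incubated at 30 °C for 16-18 h with LPS (final 5.0 ng/ml) plus a saline serial dilution of compound. Controls were no-LPS, no-inhibitor and highest-vehicle.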

Setting [4] is: Homo sapiens, PBMC, * = values obtained upon reassay.
Setting [5] is: 0 h, administered 0 h relative to time of LPS challenge.
The mark [6] stands for this setting: 1 h, administered +1 h relative to time of LPS challenge.
Where [7] appears, read: 2 h, administered −2 h relative to time of LPS challenge.
[8] abbreviates: administered 0 h relative to time of LPS challenge.
Where [9] appears, read: administered −2 h relative to time of LPS challenge.

The IC50 is the concentration needed to halve the response being measured. Usually clearance stands for a measure of how efficiently the substance is removed, as volume per time. Higher therefore signals a high capacity for elimination. Broadly, the Ki is the equilibrium dissociation constant of an inhibitor or competing ligand from its target. A lower Ki goes with tighter binding. In general, inhibition refers to the drop in the measured response relative to a control, in per cent.

Read-outs that look alike come from different tables or passages of the source.

For the compound `COc1ccccc1NC(=O)NN1CCC(=O)N2CCC[C@@H](C(=O)N[C@H](C=O)CC(=O)O)N2C1=O` [Compound 265d, [3S(4S)]3-[6,10-Dioxo-7-(2-methoxyphenylureido)-1,2,3,4,7,8,9,10-octahydro-6H-pyridazino[1,2-a][1,2,4]-triazepine-4-carboxamido]-4-oxobutanoic acid], in series [1] (Homo sapiens, PBMC, Table 17), the IC50 came out at 1500 nM. Also, in series [2] (Table 17), the clearance is 35 mL/min/kg. Moreover, the affinity at ICE (Table 17), expressed as Ki, was 500 nM.

As for `O=C[C@H](CC(=O)O)NC(=O)[C@@H]1CCCN2C(=O)CC[C@H](NC(=O)c3ccc4ncccc4c3)C(=O)N12` [Compound 438], the “IP % Inhibition” value in series [3] (% inhibition of IL-β production, LPS-challenged mice, IP, 50 mg/kg (Table 3)) was determined as 40%. Further, the “POS Inhibition” value in series [3] (% inhibition of IL-β production, LPS-challenged mice, PO, 50 mg/kg (Table 3)) turned out to be 13%. The IC50 in series [1] (setting [4]) was 1000 nM. For the same compound, the clearance in series [2] (10-20 mg/kg) was determined as 22 mL/min/kg. The same compound registered a Ki on ICE (Table 5) of 28 nM.

`COc1cccc2nc(C(=O)[C@H](CC(=O)O)NC(=O)CN3C(=O)[C@@H](NC(=O)CCc4ccccc4)CN(C(=O)CCc4ccccc4)c4ccccc43)oc12` [Compound 108b, 4-(7-Methoxybenzoxazol-2-yl)-4-oxo-3(S)-{2-[2-oxo-5-(3-phenylpropionyl)-3(S)-(3-phenylpropionylamino)-2,3,4,5-tetrahydrobenzo[b][1,4]diazepin-1-yl]-acetylamino}butyric acid] yielded a clearance in series [2] (10-20 mg/kg) above 100 mL/min/kg.

In series [1] (Homo sapiens, PBMC, Table 17), `COc1cccc(NC(=O)NN2CCC(=O)N3CCC[C@@H](C(=O)N[C@H](C=O)CC(=O)O)N3C2=O)c1` [Compound 265c, [3S(4S)]3-[6,10-Dioxo-7-(3-methoxyphenylureido)-1,2,3,4,7,8,9,10-octahydro-6H-pyridazino[1,2-a][1,2,4]triazepine-4-carboxamido]-4-oxobutanoic acid] gave an IC50 of 4500 nM. This compound also registered a clearance in series [2] (Table 17) of 32 mL/min/kg. On ICE (Table 17), this compound yielded a Ki of 1100 nM.

`O=C[C@H](CC(=O)O)NC(=O)[C@@H]1CCCN2C(=O)CC[C@H](NS(=O)(=O)c3ccccc3)C(=O)N12` [Compound 427]: it took 4500 nM to reach half-maximal inhibition in series [1] (setting [4]) (IC50). The clearance in series [2] (10-20 mg/kg) was found to be 36 mL/min/kg. The same compound returned an inhibition constant Ki on ICE (Table 5) of 180 nM.

In the case of `CCOC(=O)CC(=COC(C)=O)NC(=O)[C@@H]1CCCN2C(=O)CC[C@H](NC(=O)c3ccccc3)C(=O)N12` [Compound 2100j, [3S(1S,9S)]3-(9-Benzoylamino-6,10-dioxo-1,2,3,4,7,8,9,10-octahydro-6H-pyridazino[1,2-a][1,2]diazepine-1-carboxamido)-4-acetoxy-3-butenoic acid ethyl ester], the inhibition at 50 mg/kg in series [3] (setting [5]) came out at 0%; in series [3] (setting [6]), 33%; in series [3] (1 h, administered −1 h relative to time of LPS challenge), 41%; in series [3] (setting [7]), 48%. Further, in the series with IL-1β, human whole blood (Homo sapiens), the IC50 was 12000 nM. At ICE (Table 17), this compound yielded a Ki of 30000 nM.

On to `COc1ccc(C(=O)N[C@H]2CCC(=O)N3CCC[C@@H](C(=O)N[C@H](C=O)CC(=O)O)N3C2=O)cc1` [Compound 452], for which the inhibition at 50 mg/kg in series [3] (setting [5]) is 89%; in series [3] (setting [6]), 70%; in series [3] (setting [7]) it was 28%. In addition, the IC50 came out at 800 nM in series [1] (* = values obtained upon reassay) and 600 nM in series [1] (setting [4]). Further, in series [2] (10-20 mg/kg), the clearance came to 27.3 mL/min/kg. Also, at ICE (Table 5), the Ki came to 4.5 nM.

Take `CS(=O)(=O)N[C@H]1CCC(=O)N2CCC[C@@H](C(=O)N[C@@H](CC(=O)O)C(=O)COc3cccnc3)N2C1=O` [Compound 283b, [3S(1S,9S)]3-(6,10-Dioxo-9-methanesulphonamido-1,2,3,4,7,8,9,10-octahydro-6H-pyridazino[1,2-a][1,2]diazepine-1-carboxamido)-4-oxo-5(3-pyridyloxy)pentanoic acid]: in series [1] (Table 17), the IC50 came out at 1750 nM. Also, the “Clearance Rat, i.v.” value in series [2] (Table 17) was determined as 41 mL/min/kg.

In the case of `Nc1ccc(C(=O)N[C@H]2CCC(=O)N3CCC[C@@H](C(=O)N[C@H]4CC(=O)OC4OCc4ccccc4)N3C2=O)cc1Cl` (mixture of isomers) [Compound 213h, [1S,9S (2RS,3S)]9-[(3-Chloro-4-aminobenzoyl)amino]-6,10-dioxo-1,2,3,4,7,8,9,10-octahydro-N-(2-Benzyloxy-5-oxotetrahydrofuran-3-yl)-6H-pyridazino[1,2-a][1,2]diazepine-1-carboxamide], the results for the “percent inhibition of IL-1β production” value in series [3] (setting [8]) and in series [3] (setting [9]) were 53% and 9%, respectively. Also, the IC50 in the series with IL-1β, human whole blood amounted to 1500 nM.

In the case of `CC(=O)Nc1cccc(C(=O)N[C@H]2CCC(=O)N3CCC[C@@H](C(=O)N[C@H]4CC(=O)OC4OCc4ccccc4)N3C2=O)c1` (mixture of isomers) [Compound 213o, [1S,9S(2RS,3S)]9-[(3-Acetamido)benzamido]-N-(2-benzyloxy-5-oxotetrahydrofuran-3-yl)-6,10-dioxo-1,2,3,4,7,8,9,10-octahydro-6H-pyridazino[1,2-a][1,2]diazepine-1-carboxamide], the “percent inhibition of IL-1β production” value in series [3] (setting [8]) is reported as 8%; in series [3] (setting [9]), 4%. Further, the half-inhibitory concentration (IC50) in series [1] (Table 17) amounted to 5000 nM; in the series on IL-1β, human whole blood, 3300 nM.

For `CCOC1OC(=O)C[C@@H]1NC(=O)[C@@H]1CCCN2C(=O)CC[C@H](NC(=O)c3ccc(OC)cc3)C(=O)N12` (stereo partly drawn) [Compound 550i, [1S,9S(2RS,3S)]9-[(4-Methoxybenzoyl)amino]-6,10-dioxo-1,2,3,4,7,8,9,10-octahydro-N-(2-ethoxy-5-oxotetrahydrofuran-3-yl)-6H-pyridazino[1,2-a][1,2]diazepine-1-carboxamide], the inhibition at 50 mg/kg was 23% in series [3] (setting [5]) and -10% in series [3] (setting [7]). Further, in the series on IL-1β, human whole blood (Homo sapiens), the 50% inhibitory concentration (IC50) amounted to 1400 nM.

As for `CCOC1OC(=O)C[C@@H]1NC(=O)[C@@H]1CCCN2C(=O)CC[C@H](NC(=O)c3cccc(NC(C)=O)c3)C(=O)N12` (stereo partly drawn) [Compound 550n, [1S,9S (2RS,3S)]9-(3-Acetamido) benzoylamino-6,10-dioxo-N-(2-ethoxy-5-oxo-tetrahydrofuran-3-yl)-1,2,3,4,7,8,9,10-octahydro-6H-pyridazino[1,2-a][1,2]diazepine-1-carboxamide], the results for the inhibition at 50 mg/kg in series [3] (setting [5]) and in series [3] (setting [7]) were 65% and 19%, respectively. Besides, the IC50 with IL-1β, human whole blood (Homo sapiens) is below 300 nM.

`CCOC1OC(=O)C[C@@H]1NC(=O)[C@@H]1CCCN2C(=O)CCN(NC(=O)c3ccc4c(c3)OCO4)C(=O)N12` (stereo partly drawn) [Compound 528, [4S(2RS,3S)]6,10-Dioxo-N-(2-ethoxy-5-oxotetrahydrofuran-3-yl)-7-(3,4-methylenedioxybenzoylamino)-1,2,3,4,7,8,9,10-octahydro-6H-pyridazino[1,2-a][1,2,4]triazepine-4-carboxamide]: the inhibition at 50 mg/kg is 67% in series [3] (setting [5]) and 25% in series [3] (setting [7]). Besides, the IC50 with IL-1β, human whole blood (Homo sapiens) was found to be 2200 nM.

The values are drawn from US20120165319A1, “INHIBITORS OF INTERLEUKIN-1 BETA CONVERTING ENZYME” (VERTEX PHARMACEUTICALS INCORPORATED, priority 1995, published 2012).
